Assay results taken from publication PMC3790782, “Optimization and Pharmacological Validation of a Leukocyte Migration Assay in Zebrafish Larvae for the Rapid In Vivo Bioactivity Analysis of Anti-Inflammatory Secondary Metabolites” (PLoS ONE, 2013).
≈ marks a conversion by molar mass, not a printed value. Structures can show the parent of a compound that is named as a salt. Marks after values point to notes of the source that are not given here.

Assays:
[1] = tested on: leukocyte migration in 4 dpf zebrafish larvae; assay: LPS-enhanced leukocyte migration assay (tail transection, MPO staining, RLM); assay type: in vivo, zebrafish (Danio rerio); set-up: Anti-inflammatory activity at MTC: concentration or dose not given beside the values; conditions: for Relative leukocyte migration (RLM) / response vs control in vivo at 30 µM / response vs control in vivo at 1 µM / response vs control in vivo at 10 µM / response vs control in vivo at 100 µM / response vs control in vivo at 300 µM / response vs control in vivo at 500 µM / Leukocyte migration (RLM): tail cut + 10 µg/ml LPS, relative to 1% DMSO control; for response vs control in vivo at 30 µM / response vs control in vivo at 1 µM / response vs control in vivo at 10 µM / response vs control in vivo at 100 µM / response vs control in vivo at 300 µM / response vs control in vivo at 500 µM: Danio rerio, Leukocyte, 8 h; for Anti-inflammatory activity at MTC: (1−RLM)x100; for RLM (zebrafish-based assay): at the MTC given in Table 2
Experimental: The lipopolysaccharide- (LPS−)enhanced leukocyte migration assay was carried out by triplicate for each sample in 4 dpf zebrafish larvae. The total incubation period of the assay was eight hours. Initially, a pre-incubation step (i.e. prior to tail transection) of one hour at 28°C (±0.5°C) was carried out in 24-well culture plates. Ten larvae per well were incubated in 1 ml of testing mix, consisting of a specific concentration of each sample and the amount of 0.3 X Danieau’s medium necessary to complete 1 ml. Immediately after pre-incubation, complete tail transection in each larva was performed. Zebrafish larvae were first anesthetized by immersion in 0.3 X Danieau’s medium containing 70 µg/ml tricaine (ethyl 3-aminobenzoate, Sigma-Aldrich) and then tail transection near the tip was performed with a sterile scalpel under light microscopy (Carl Zeiss Stemi 2000C). Larvae were then placed in fresh 0.3 X Danieau’s medium without anesthetic for a few minutes until the final incubation period. For the last step, a new testing mix was prepared including 10 µg/ml lipopolysaccharides from Salmonella typhosa ATCC 10749 (LPS, Sigma-Aldrich Chemical) to enhance leukocyte migration to the injured zone. The final incubation step (i.e. subsequent to tail transection) of the injured larvae in contact with the pro-inflammatory agent and with the specific concentration of each SAID, NSAID, non-AID, NP, and PE at 28°C (±0.5°C) was done for 7 h. Within this period, sporadic evaluations of the larvae were done to examine their viability during the time of the assay. Larvae that completed the incubation time were fixed overnight in 4% formaldehyde (Sigma-Aldrich) at 4°C. Controls containing only the vehicle (1% DMSO) were processed in parallel.
Fixed larvae were gently washed twice with 1 X PBST (PBS-1X phosphate buffered saline, Gibco +0.1% Tween 20) for 5–10 min and then incubated at room temperature in 1 ml of freshly prepared Leucognost® Pox (Merck) staining solution, made according the directions of the provider. Observation of stained black-brown cells (leukocytes) in the larvae was possible within 15 min of incubation. Evaluation of the migrating leukocytes, particularly surrounding the injured region, in each larva was done under light microscopy (Carl Zeiss Stemi 2000C) and scoring was done using a migration scale established to semi-quantify the amount of migrating leukocytes on one side of each larva.
The average of the value achieved for each of the ten larvae tested in triplicate for one sample is expressed as relative leukocyte migration (RLM) according to the formula: RLM = leukocyte migration of the larva/average leukocyte migration of the negative control.
To determine the extent of leukocyte migration generated after exposing 4 dpf zebrafish larvae to mechanical and biological stimuli – namely tail transection and LPS exposure – we used a commercially available whole-mount cytochemical staining method (Leucognost® Pox, Merck) to detect MPO activity in situ. To minimize the number of handling steps post-staining, this method was chosen over the alternative myeloperoxidase stain Sudan Black B [26], [27], which also stains phospholipids, neural fats and sterols. In our experiments, we visualized migrating leukocytes in 4 dpf larvae at 8 h post-injury. Microscopic evaluations of MPO-stained larvae allowed us to score the degree of leukocyte migration at the trauma site according to a comparative scale that we established particularly for this purpose (Figure 2). Myeloperoxidase-positive cells, appearing as black-brown dots, were counted in a segment at the edge of the tail on one side of every larva (Figure 2). The number of leukocytes was then graded according to the comparative scale and subsequently converted into a relative value expressed as the relative leukocyte migration (RLM) activity for the total number or larvae for one sample.

[2] = tested on: zebrafish larvae; conditions: 4 dpf zebrafish larvae, 8 h post-incubation; not more than 2 of 10 larvae with signs of toxicity
Experimental: For the toxicological analysis, ten 4 dpf zebrafish larvae were used per well in 24-well culture plates. Incubation of each set of larvae at 28°C (±0.5) was done with SAIDs, NSAIDs and non-AIDs at concentrations ranging from 0.1 µM to 500 µM, with NPs at concentrations ranging from 1 µM to 500 µM, and with PEs at concentrations ranging from 1 ug/ml to 1 mg/ml. Controls containing only vehicle (1% DMSO) and untreated larvae were processed in parallel. Examination of each set of larvae was done under light microscopy (Carl Zeiss Stemi 2000C) each hour during a period of 8 h, and a final evaluation at 24 h post-incubation. At 8 h post-incubation, signs of toxicity, e.g. pericardial oedema, cardiovascular defects (arrhythmia or decreased circulation), balance defects (loss of normal posture), locomotor defects (decreased touch response), and ultimately death were scored for every drug, NP, and PE to further establish their maximum tolerated concentration (MTC). […] In this context, only non-toxic concentrations (below the MTC) were considered for further leukocyte migration analysis. All the toxicological assays were performed in duplicate using a different batch of zebrafish larvae for each set of experiments.
Toxicological assessment of all the samples analyzed in our study was done prior to the evaluation of their anti-inflammatory properties. The maximum tolerated concentrations (MTCs) were determined at 8 h post-treatment according to toxicological parameters including pericardial oedema, cardiovascular defects (arrhythmia or decreased circulation), balance defects (loss of normal posture), locomotor defects (decreased touch response), and death. […] Vehicle-treated (1% DMSO) and untreated larvae were processed in parallel to minimize experimental variability in this toxicological evaluation.

[3] = tested on: TNF-α, RAW 264.7; conditions: cited from earlier work
[4] = tested on: COX, rat peritoneal leukocytes; set-up: method as in PMID 19378317, PMID 16220571, PMID 21443976; conditions: cited from earlier work
[5] = tested on: NO, PGE2, COX-2, RAW 264.7; set-up: method as in PMID 21771629, PMID 21870032; conditions: cited from earlier work
[6] = tested on: TNF-α, RBL-2H3; set-up: method as in PMID 19378317, PMID 17982104, PMID 21443976; conditions: cited from earlier work
[7] = tested on: IL-4, RBL-2H3; set-up: method as in PMID 19378317, PMID 17982104, PMID 21443976; conditions: cited from earlier work
[8] = tested on: IL-1β, human monocytes; set-up: method as in PMID 19378317, PMID 17982104, PMID 21443976; conditions: cited from earlier work
[9] = tested on: TNF-α, iNOS, macrophages; set-up: method as in PMID 19378317, PMID 15668926; conditions: cited from earlier work
[10] = tested on: PGE2, rat macrophages; conditions: cited from earlier work

| Compound | Relative leukocyte migration (RLM) ([1]; 200 µM) | Maximum tolerated concentration (MTC) [2] [µM] | response vs control in vivo at 30 µM ([1]; 30 µM) [%] | response vs control in vivo at 1 µM ([1]; 1 µM) [%] | response vs control in vivo at 10 µM [1] [%] | response vs control in vivo at 100 µM [1] [%] | Anti-inflammatory activity at MTC [1] [%] | RLM (zebrafish-based assay) [1] | Relative leukocyte migration (RLM) ([1]; 0.1 µM) | further results |
| --- | --- | --- | --- | --- | --- | --- | --- | --- | --- | --- |
| Nc1nc(N)nc(N)n1 [melamine] | 0.85 | 200 | – | – | – | – | – | – | – | – |
| CN(C)CCC=C1c2ccccc2COc2ccccc21 [doxepin, doxepin hydrochloride] | – | – | 71 | – | – | – | – | – | – | – |
| O=c1cc(-c2ccc(O)c(O)c2)oc2cc(O)cc(O)c12 [Luteolin, luteolin] | – | 500 | 55 | 63 | 61 | 48 | 59 | 0.41 | – | response vs control in vivo at 300 µM ([1]; 300 µM): 44%; response vs control in vivo at 500 µM ([1]; 500 µM): 41%; IC50 [3]: < 1 µM; IC50 [4]: 100 µg/mL (≈ 349 µM) |
| O=C(O)Cc1ccccc1Nc1c(Cl)cccc1Cl [diclofenac] | – | 10 | – | – | 13 | – | – | – | 0.69 | – |
| NC12CC3CC(CC(C3)C1)C2 [amantadine, amantadine hydrochloride] | 0.82 | 200 | – | – | – | – | – | – | – | – |
| CC(C)=CCC[C@](C)(O)[C@@H]1CC=C(C)CC1 [(−)-α-bisabolol] | – | 30 | – | – | – | – | 52 | 0.48 | – | Leukocyte migration (RLM) ([1]; 1 µM): 0.53 ^*; Leukocyte migration (RLM) ([1]; 30 µM): 0.48; IC50 [5]: 100 µM |
| C[C@@H]1C[C@H]2[C@@H]3CCC4=CC(=O)C=C[C@]4(C)[C@@]3(F)[C@@H](O)C[C@]2(C)[C@@]1(O)C(=O)CO [dexamethasone] | 0.06 | – | – | – | – | – | – | – | 0.81 | – |
| O=c1cc(-c2ccc(O)cc2)oc2cc(O)cc(O)c12 [Apigenin, apigenin] | – | 500 | 54 | 74 | 53 | 37 | 65 | 0.35 | – | IC50 [6]: 5.3 µM; IC50 [7]: 3.6 µM; Leukocyte migration (RLM) ([1]; 500 µM): 0.35 ^***; response vs control in vivo at 300 µM ([1]; 300 µM): 37%; response vs control in vivo at 500 µM ([1]; 500 µM): 35%; Anti-inflammatory activity at MTC ([1]; listed as apigenin): 65%; IC50 [8]: 10 µM |
| CN1C(C(=O)Nc2ccccn2)=C(O)c2ccccc2S1(=O)=O [piroxicam] | – | 100 | – | – | – | 3 | – | – | 0.85 | – |
| O=C1C[C@@H](c2ccc(O)cc2)Oc2cc(O)cc(O)c21 [Naringenin, naringenin] | – | 30 | 37 | 67 | 42 | – | 63 | 0.37 | – | Leukocyte migration (RLM) ([1]; 30 µM): 0.37 ^** |
| COc1ccc2c(c1)c(CC(=O)O)c(C)n2C(=O)c1ccc(Cl)cc1 [indomethacin] | 0.09 | 200 | – | – | – | – | – | – | 0.72 | – |
| O=c1c(O)c(-c2ccc(O)c(O)c2)oc2cc(O)cc(O)c12 [Quercetin, quercetin] | – | 500 | 35 | 65 | 55 | 42 | 69 | 0.31 | – | Leukocyte migration (RLM) ([1]; 500 µM): 0.31 ^*; response vs control in vivo at 300 µM ([1]; 300 µM): 40%; response vs control in vivo at 500 µM ([1]; 500 µM): 31%; Anti-inflammatory activity at MTC ([1]; listed as quercetin): 69%; IC50 [3]: 1 µM; IC50 [9]: 50 µM; IC50 [10]: 13.9 µM |
| C[C@]12C=CC(=O)C=C1CC[C@@H]1[C@@H]2[C@@H](O)C[C@@]2(C)[C@H]1CC[C@]2(O)C(=O)CO [prednisolone] | 0.07 | – | – | – | – | – | – | – | 0.66 | – |
| C[C@]1(OC(=O)/C=C/c2ccccc2)C[C@@H](O)[C@]2(O)C=CO[C@@H](O[C@@H]3O[C@H](CO)[C@@H](O)[C@H](O)[C@H]3O)[C@@H]21 [Harpagoside, harpagoside] | – | 300 | 30 | 48 | 29 | 15 | – | – | – | Leukocyte migration (RLM) ([1]; 300 µM): 0.12 ^*; response vs control in vivo at 300 µM ([1]; 300 µM): 12% |
